Patent US9119855B2, “Compositions and methods for treatment of the side-effects associated with administration of cancer chemotherapeutic agents” (Asymmetric Therapeutics, LLC, priority 2008, dated 2015)
Entries after “also recorded” stand apart in the source; their conditions may differ. Where two headings read alike, the source gives them in different places.

Columns and labels:
Caco-2 cells = test system: Caco-2 cells
Experimental: 5-FU was dissolved in water and added to media at 10 μM, the clinically-relevant dose. Media was changed every day with reapplication of 5-FU. After 72 hr, the cell viability was assessed and is expressed relative to a vehicle control (Caco-2, n=3).

[1] = test system: primary human epithelial cells of the gingiva (HEGP); experiment: Protection of primary gingival epithelial cells from 5-FU toxicity, 72 hours (FIG. 9); format: cell-based
Excerpt: GI columnar cells rely for growth predominantly on de novo pyrimidine synthesis from nutrients in the GI contents. Squamous cells of the oropharynx rely for growth predominantly on salvage of cell constituents of the overlying cells closer to the tissue surface.

primary human skin cells = test system: primary human skin cells
Experimental: The concentration of 5-FU was also 0.01 mM in these trials. […] The relative viability of the cells was determined after 48 hours (FIG. 7) or 72 hours (FIG. 8).

[2] = acidic / low pH, orotate not charged (Robinson et al.); cited from earlier work
in vitro = format: cell-based; conditions: human
Experimental: The efficacy of certain compounds as protective agents when co-administered with 5-FU was tested in cell culture. […] The relative viability of the cells was determined after 120 hours.

[3] = Van Acker et al.; cited from earlier work
[4] = Van Acker et al.; cited from earlier work; remark: listed apart in the source

Nc1ncnc2nc[nH]c12 [adenine]
cytoprotection against 10 μM 5-FU toxicity (Caco-2 cells): progressively greater cytoprotection | excess of protective nucleobase required for quantitative protection (Caco-2 cells; adenine alone, vs 10 μM 5-FU): ~100 ×

O=c1cc[nH]c(=O)[nH]1 [uracil]
effect on cytoprotection by adenine 2.5 mM in combination with orotate 2.5 mM (Caco-2 cells; further addition of uracil 1.25 and 2.5 mM, 10 μM 5-FU, data not shown): reversal of the cytoprotection | efficacy and toxicity to primary gingival cells (HGEP) ([1]; FIG. 9, 72 hours): effective and non-toxic | prevention of 5-FU toxicity ([1]; excess of uracil together with 5-FU 10 μM): prevented 5-FU toxicity | protection against 5-FU toxicity ([1]; further addition of uracil at 1.25 mM to adenine and orotate 2.5 mM each (Result Y)): significant protection | protection against 5-FU toxicity ([1]; further addition of uracil at 2.5 mM to adenine and orotate 2.5 mM each (Result Z)): even more significant protection

O=C(O)c1cc(=O)[nH]c(=O)[nH]1 [orotate]
cytoprotection against 10 μM 5-FU toxicity (Caco-2 cells): statistically insignificant cytoprotection | effect of adding orotate on cytoprotection by adenine (Caco-2 cells; orotate 1.25 mM with adenine 0.0125 mM through 1.25 mM, 10 μM 5-FU (FIG. 5)): did not initially attenuate 5-FU toxicity beyond the cytoprotection provided by adenine alone | effect of adding orotate on cytoprotection by adenine (Caco-2 cells; still higher concentrations of orotate with adenine 2.5 mM (FIG. 6, Results 5, 6 vs 2)): progressively greater abrogation of salvage | impact on skin (squamous) cell response to 5-FU exposure (primary human skin cells): does not impact | absorption into the systemic circulation [2]: better absorbed; also recorded: absorbed at a higher rate

O=c1[nH]cc(F)c(=O)[nH]1 [5-FU, 5-fluorouracil, reference compound]
viability at 120 h, 0.01 mM (in vitro): < 50%

Nc1nc(O)nc2nc(O)[nH]c12 [2,8-dihydroxy adenine]
renal toxicity [3]: can cause renal stones | solubility [4]: poorly soluble
